Results on one molecule are retold here after patent KR20200058863A, “루테인 장용성 고체분산체를 유효성분으로 함유하는 위산보호용 조성물 및 이를 포함하는 경구용 제제” (중앙대학교 산학협력단, priority 2018, dated 2020).

Where two headings read alike, the source gives them in different places.

Series [1] can be described thus: physchem. Particulars: artificial gastric fluid, pH 1.2.
For series [2] the following is noted: intestinal fluid, pH 6.8; spectra over 24 h.
The nature of series [3]: physchem. Particulars: ph 1.2 solution.
Series [4] in a line: In vitro dissolution in artificial gastric/intestinal fluid and successive pH (USP 29 apparatus 2). The format is physicochemical. Particulars: artificial gastric fluid pH 1.2, 120 min.
The nature of series [5]: physchem. Particulars: artificial gastric fluid, pH 1.2. The source holds these as a separate data set.
The nature of series [6]: PXRD crystallinity of lutein and solid dispersions. It counts as physicochemical. Particulars: 2θ 5° to 50°, room temperature.
For series [7] the following is noted: intestinal condition pH 6.8, 37 ± 0.5 ℃, 100 rpm.

The molecule `CC1=C[C@H](O)CC(C)(C)[C@H]1/C=C/C(C)=C/C=C/C(C)=C/C=C/C=C(C)/C=C/C=C(C)/C=C/C1=C(C)C[C@@H](O)CC1(C)C` [루테인] came in with a degraded at 2 h in series [1] of 70%. Further, the “change of lutein absorbance spectrum” value in series [2] is given as “유의한 변화가 확인되지 않았다”. Moreover, in series [3], the share remaining at 12 h was 14.7%. For the same molecule, in series [4] (37 ± 0.5 ℃, 100 rpm), the acid resistance result is “산저항성을 나타내었으며”. The “lutein detected in dissolution medium” value in series [4] (low solubility) is reported as “검출되지 않았다”. The degraded at 24 h in series [5] is approximately 50%. For the same molecule, in series [6], the “crystallinity (PXRD peaks)” value is “다양한 특유의 피크를 갖는 고도의 결정구조”. The molecule further gave a lutein content (pH 1.2, 0 h) of 10.31 ± 0.29 mg and a lutein content (pH 1.2, after 12 h) of 1.51 ± 0.03 mg. For the setting “pH 1.2, 0 h”, the lutein ratio turned out to be 100%. The change of lutein result in series [7] is on record as “루테인 변화가 나타나지 않았다”.
